Target: Fibroblast growth factor receptor 3 (Homo sapiens, UniProt P22607)
Assay: Inhibition of N-terminal GST-fused human FGFR3 cytoplasmic domain (436 to 806(end) amino acids) using CSKtide substrate incubated for 90 mins

Fibroblast growth factor receptor 3, sequence (P22607 whole entry, the tested form may be a part): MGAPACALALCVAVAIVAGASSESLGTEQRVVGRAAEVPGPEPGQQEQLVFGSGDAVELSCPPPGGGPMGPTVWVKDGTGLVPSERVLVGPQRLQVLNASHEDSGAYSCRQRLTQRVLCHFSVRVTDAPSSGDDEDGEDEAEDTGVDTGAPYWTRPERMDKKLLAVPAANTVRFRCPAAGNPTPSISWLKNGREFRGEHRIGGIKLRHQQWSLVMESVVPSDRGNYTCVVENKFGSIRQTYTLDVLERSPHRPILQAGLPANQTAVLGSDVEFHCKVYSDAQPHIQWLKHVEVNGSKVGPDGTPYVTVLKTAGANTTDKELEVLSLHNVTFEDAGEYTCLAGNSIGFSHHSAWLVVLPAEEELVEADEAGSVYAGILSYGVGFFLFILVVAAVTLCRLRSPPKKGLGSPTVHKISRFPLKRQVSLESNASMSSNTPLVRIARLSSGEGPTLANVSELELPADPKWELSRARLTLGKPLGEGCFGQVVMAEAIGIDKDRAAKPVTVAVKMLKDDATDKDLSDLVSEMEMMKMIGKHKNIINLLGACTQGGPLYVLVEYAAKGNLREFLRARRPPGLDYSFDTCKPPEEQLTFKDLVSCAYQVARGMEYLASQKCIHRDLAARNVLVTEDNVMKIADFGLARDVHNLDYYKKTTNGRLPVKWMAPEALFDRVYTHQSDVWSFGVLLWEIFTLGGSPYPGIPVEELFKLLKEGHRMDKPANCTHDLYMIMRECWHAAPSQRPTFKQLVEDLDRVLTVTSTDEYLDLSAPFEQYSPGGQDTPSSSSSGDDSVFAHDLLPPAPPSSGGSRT

C=CC(=O)Nc1cccc(C)c1Nc1ncc2cc(-c3c(Cl)c(OC)cc(OC)c3Cl)ccc2n1
IC50: 150 nM
